Patent US11492341B2, “ACLY inhibitors and uses thereof” (Nimbus Artemis, Inc., priority 2018, dated 2022)

Molecular target: ACL (Homo sapiens (Human), UniProt P53396)
Assay: ADP-Glo Assay
Assay type: biochemical
Conditions: 3 nM ACL, 15 μM ATP, 3 μM CoA, 300 μM Citrate
Procedure: Example 28. ADP-Glo Assay
Compounds of the present invention were evaluated in an ADP-GLO assay as follows: a) Dilute cpd 1:3 in succession in DMSO by hand for each cpds for 12 pts b) Add 0.1 μL diluted cpd solution to assay plate, each dose with 2 replicates c) Centrifuge 1000 RPM for 1 min d) Add 5 μL ACL working solution to 384-well assay plate, centrifuge 1000 RPM for 1 min e) Incubate at 25° C. for 15 min f) Add 5 μL substrate working solution to initiate reaction g) Final ACL reaction concentrations: 3 nM ACL, 15 μM ATP, 3 μM CoA, 300 μM Citrate, 0.01% Brij35, 4 mM DTT, 1% DMSO; h) Reference final conc: 30 uM starting Conc, 3× dilution, 11+0 points. Test cpd conc: 30/100 uM starting Conc, 3× dilution, 11+0 points. i) Incubate at 25° C. for 60 min j) Add 10 μL ADP Glo reagent, centrifuge 1000 RPM for 1 min k) Incubate at 25° C. for 40 min l) Add 20 μL kinase detection reagent, centrifuge 1000 RPM for 1 min m) Incubate at 25° C. for 40 min n) Read on Envision for US LUM as RLU

Chain of ACL (P53396 whole entry, species assumed): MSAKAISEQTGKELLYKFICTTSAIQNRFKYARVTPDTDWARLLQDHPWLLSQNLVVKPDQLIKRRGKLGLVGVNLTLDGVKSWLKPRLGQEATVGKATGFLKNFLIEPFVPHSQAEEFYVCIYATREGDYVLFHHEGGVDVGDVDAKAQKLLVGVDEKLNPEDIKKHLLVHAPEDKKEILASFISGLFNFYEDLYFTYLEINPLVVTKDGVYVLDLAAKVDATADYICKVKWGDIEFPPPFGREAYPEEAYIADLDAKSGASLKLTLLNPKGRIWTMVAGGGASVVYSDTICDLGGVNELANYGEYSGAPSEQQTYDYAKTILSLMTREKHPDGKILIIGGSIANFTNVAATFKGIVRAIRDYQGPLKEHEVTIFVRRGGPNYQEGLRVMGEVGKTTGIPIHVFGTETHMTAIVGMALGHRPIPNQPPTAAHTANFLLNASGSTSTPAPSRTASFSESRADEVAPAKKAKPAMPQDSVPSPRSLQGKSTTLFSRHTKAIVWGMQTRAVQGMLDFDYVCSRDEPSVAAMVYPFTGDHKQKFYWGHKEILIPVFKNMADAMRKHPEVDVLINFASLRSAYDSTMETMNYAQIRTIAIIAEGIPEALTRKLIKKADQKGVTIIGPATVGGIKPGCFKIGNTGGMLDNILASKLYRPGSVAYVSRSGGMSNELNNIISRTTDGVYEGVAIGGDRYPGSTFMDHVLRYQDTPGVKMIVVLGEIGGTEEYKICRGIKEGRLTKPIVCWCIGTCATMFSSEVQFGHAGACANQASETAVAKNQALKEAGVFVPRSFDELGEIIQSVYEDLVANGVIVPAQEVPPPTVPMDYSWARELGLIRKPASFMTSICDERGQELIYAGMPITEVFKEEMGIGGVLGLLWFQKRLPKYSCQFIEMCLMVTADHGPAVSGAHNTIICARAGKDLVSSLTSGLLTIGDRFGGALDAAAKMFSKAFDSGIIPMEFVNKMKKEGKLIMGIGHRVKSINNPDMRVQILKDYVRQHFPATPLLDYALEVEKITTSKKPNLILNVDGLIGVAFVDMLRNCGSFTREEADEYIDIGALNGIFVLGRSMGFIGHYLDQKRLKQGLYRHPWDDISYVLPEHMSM

| Structure (SMILES) | IC50 |
| --- | --- |
| CCOC(=O)c1cc2cc(Cl)ccc2n1S(=O)(=O)c1ccc(-c2ccccc2)cc1F [I-164] | ≥ 20 µM |
| CCOC(=O)c1cc2cc(Cl)ccc2n1S(=O)(=O)c1cc(Cl)cc(Cl)c1 [I-108] | ≥ 20 µM |
| Cc1nc(=O)c2cc(Cl)ccc2n1S(=O)(=O)c1cc(Br)cc(Cl)c1O [I-155] | ≥ 20 µM |
| O=S(=O)(c1cc(F)ccc1O)n1c(-c2ccccc2)cc2cc(Cl)ccc21 [I-76] | 0.5 to 20 µM |
| O=S(=O)(c1cc(Cl)cc(Cl)c1O)N1CCC1c1ccccc1F (stereo not shown) [I-12] | 0.5 to 20 µM |
| O=S(=O)(c1cc(Cl)cc(Cl)c1O)N1CC2(CCOCC2)C1c1ccccc1 (stereo not shown) [I-19] | 0.5 to 20 µM |
| N#Cc1ccc2c(c1)cc(C1CC1)n2S(=O)(=O)c1cc(F)cc(F)c1O [I-82] | 0.5 to 20 µM |
| O=C(c1cc2cc(Cl)ccc2n1S(=O)(=O)c1cc(Cl)cc(Cl)c1O)N1CCCCC1 [I-72] | 0.5 to 20 µM |
| O=C(c1cc2cc(Cl)ccc2n1S(=O)(=O)c1cc(Br)cc(Cl)c1O)N1CCC1 [I-162] | 0.5 to 20 µM |
| O=S(=O)(c1cc(F)cc(F)c1O)n1c(-c2cccnc2)cc2cc(Cl)ccc21 [I-91] | 0.5 to 20 µM |
| Cc1c(C)n(S(=O)(=O)c2cc(Br)cc(Cl)c2O)c2ccc(Cl)cc12 [I-36] | 0.5 to 20 µM |
| O=C(O)c1cc(Br)cc(S(=O)(=O)n2c(-c3ccccc3)cc3cc(Cl)ccc32)c1O [I-89] | 0.5 to 20 µM |
| O=S(=O)(c1cc(F)cc(F)c1O)n1c(-c2ccncc2)cc2cc(Cl)ccc21 [I-93] | 0.5 to 20 µM |

Second part, the compound after the results:

| IC50 | Structure (SMILES) |
| --- | --- |
| < 0.5 µM | O=S(=O)(c1cc(Br)cc(Cl)c1O)n1c(-c2cncnc2)cc2cc(Cl)ccc21 [I-24, 4-bromo-2-chloro-6-((5-chloro-2-(pyrimidin-5-yl)-1H-indol-1-yl)sulfonyl)phenol] |
| 0.5 to 20 µM | COc1c(F)cc2cc(C)n(S(=O)(=O)c3cc(Br)cc(Cl)c3O)c2c1F [I-165] |
| 0.5 to 20 µM | O=S(=O)(c1cc(F)cc(F)c1O)n1c(-c2ccnnc2)cc2cc(Cl)ccc21 [I-103] |
| 0.5 to 20 µM | N#Cc1ccc2c(c1)cc(-c1cncs1)n2S(=O)(=O)c1cc(F)cc(F)c1O [I-85] |
| 0.5 to 20 µM | O=C(NO)c1ccc2cc(-c3ccccc3)n(S(=O)(=O)c3cc(Br)cc(Cl)c3O)c2c1 [I-154] |
| 0.5 to 20 µM | COc1ncc(-c2cc3cc(Cl)ccc3n2S(=O)(=O)c2cc(F)cc(F)c2O)cn1 [I-138] |
| 0.5 to 20 µM | O=S(=O)(c1cc(Br)cc(Cl)c1O)n1c(-c2ccc(OC(F)(F)F)cc2)cc2ccncc21 [I-49, 4-bromo-2-chloro-6-((2-(4-(trifluoromethoxy)phenyl)-1H-pyrrolo[2,3-c]pyridin-1-yl)sulfonyl)phenol] |
| 0.5 to 20 µM | O=C(O)c1ccc2cc(-c3ccccc3)n(S(=O)(=O)c3cc(Cl)cc(Br)c3)c2c1 [I-69] |
| 0.5 to 20 µM | O=C(O)c1sccc1S(=O)(=O)n1c(-c2ccccc2)cc2cc(Cl)ccc21 [I-71] |
| 0.5 to 20 µM | O=C(c1ccc2cc(-c3ccccc3)n(S(=O)(=O)c3cc(Br)cc(Cl)c3O)c2c1)N1CCC1 [I-145, Azetidin-1-yl(1-((5-bromo-3-chloro-2-hydroxyphenyl)sulfonyl)-2-phenyl-1H-indol-6-yl)methanone] |
| 0.5 to 20 µM | CC(=O)Nc1ccc2c(c1)CN(S(=O)(=O)c1cc(Cl)cc(Cl)c1O)CC2 [I-13] |
| 0.5 to 20 µM | Cc1ccc2c(c1)cc(-c1cncnc1)n2S(=O)(=O)c1cc(F)cc(F)c1O [I-92] |
| 0.5 to 20 µM | O=c1[nH]cc(Cl)cc1S(=O)(=O)n1c(-c2ccccc2)cc2cc(Cl)ccc21 [I-65, 5-chloro-3-((5-chloro-2-phenyl-1H-indol-1-yl)sulfonyl)pyridin-2(1H)-one] |
| 0.5 to 20 µM | CN(C)C(=O)c1cccc(-c2cc3cc(Cl)ccc3n2S(=O)(=O)c2cc(Br)cc(Cl)c2O)c1 [I-37] |
| 0.5 to 20 µM | NC(=O)c1cc(Cl)c(O)c(S(=O)(=O)n2c(-c3ccccc3)cc3cc(Cl)ccc32)c1 [I-79] |
| 0.5 to 20 µM | Cc1ccc2c(c1)cc(-c1ccccc1)n2S(=O)(=O)c1cc(Br)cc(Cl)c1O [I-43] |
| < 0.5 µM | O=C(O)c1ccc2c(c1)cc(-c1ccccc1)n2S(=O)(=O)c1cc(Br)cc(Cl)c1O [I-55] |
| < 0.5 µM | O=S(=O)(c1cc(Br)cc(Cl)c1O)n1cc(-c2cncs2)c2cc(Cl)ccc21 [I-159] |
